Results taken from patent US5591741A, “Fungicidal spiroheterocyclic derivatives” (American Cyanamid Company, priority 1993, dated 1997).

Legend:
[1] = system: Alternaria solani; assay: Activity against tomato early blight (AS); format: in vivo; details: Table VI; tomato seedlings, contact prophylactic foliar spray, 4 days
Summary of the method: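 Plants were challenged with A. solani conidia (10^4 spores/ml) 24 h after a protective foliar spray of compound in 50:50 acetone/water plus 0.04% Tween 20. Held humid at 21° C for 4 days, then percent leaf area with lesions was scored as a rating relative to controls.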

[2] = system: Pyricularia oryzae; format: in vivo; details: rice seedlings, direct therapeutic foliar spray, 600 ppm, 4-5 days
[3] = system: Erysiphe graminis f.sp. hordei; assay: Activity against barley powdery mildew, direct therapeutic (EGT); format: in vivo; details: direct therapeutic foliar spray, 600 ppm, up to 7 days
Summary of the method: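 A curative spray at 600 ppm was applied to single-leaf Golden Promise barley inoculated with powdery mildew conidia the previous day. After up to 7 days at 18 °C and 40% humidity, disease control was rated from percent leaf area sporulating relative to untreated or diluent-sprayed controls.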

[4] = system: Leptosphaeria nodorum; assay: Activity against wheat leafspot (LN); format: in vivo; details: direct therapeutic foliar spray, 600 ppm, 6-8 days
Summary of the method: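 Therapeutic foliar spray: compound at 600 ppm applied to single-leaf wheat (cv Norman) 24 h after inoculation with 1.5×10^6 conidia/ml. Disease control scored after 6-8 days at 22° C and 70% humidity as lesions per leaf versus untreated or diluent-sprayed controls.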

[5] = system: Plasmopara viticola; assay: Antisporulant activity against vine downy mildew (PVA); format: in vivo; details: vine leaves, antisporulant foliar spray, 600 ppm, 750 l/ha
Summary of the method: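 Cabernet Sauvignon vines (~8 cm) inoculated on lower leaf surfaces with 5×10^4 zoosporangia/ml, held 24 h at 21° C high humidity then 24 h glasshouse. Infected leaves sprayed underside with 600 ppm compound in 1:1 water/acetone, 0.04% Tween 20, 750 l/ha; 96 h glasshouse, 24 h humidity. Sporulating leaf area rated versus control.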

[6] = system: Rhizoctonia solani; assay: Activity against Rhizoctonia in-vitro (RSI); format: cell-based; details: 10 ppm, 10 days, 20° C., mycelial growth
Summary of the method: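 Compound at a final 10 ppm (acetone vehicle) in half-strength PDB, inoculated with 5×10^4 fragments/ml of shaken-culture R. solani mycelium. After incubation at 20° C for 10 days, growth scored as a rating versus untreated or diluent-treated controls.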

[7] = system: Pseudocercosporella herpotrichoides; assay: Activity against wheat eyespot in-vitro (PHI); format: cell-based; details: 10 ppm, 10 days, 20° C., mycelial growth
Summary of the method: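 Mycelial growth was scored after 10 days at 20 °C against untreated or diluent controls. The broth was half-strength potato dextrose, holding 10 ppm test compound (from acetone) and 5×10^4 fragments/ml of the eyespot fungus.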

[8] = system: Erysiphe graminis f.sp. hordei; assay: Direct protectant activity against barley powdery mildew (EGP); format: in vivo; details: direct protectant foliar spray, 8 days
Summary of the method: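 Rating reflects percentage of leaf area with sporulation compared with untreated or diluent-sprayed controls. Protectant spray was applied to single-leaf barley (cv Golden Promise) 24 h before conidia inoculation. Plants were kept at 18 °C and 40% RH throughout, with 8 days of disease development.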

[9] = system: Phytophthora infestans; format: in vivo; details: tomato, direct protectant foliar spray
[10] = system: Botrytis cinerea; assay: Direct protectant activity against broad bean grey mould (BCB); format: in vivo; details: direct protectant foliar spray, 600 ppm, 4 days
Summary of the method: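 Protectant foliar test: lesion coverage assessed 4 days after inoculation and rated relative to untreated or diluent-sprayed plants. Compound applied at 600 ppm to cv The Sutton leaves 24 h before 10^6 conidia/ml suspension; incubation at 22 °C in high humidity.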

[11] = system: Venturia inaequalis; assay: Activity against apple scab in-vitro (VII); format: cell-based; details: 10 ppm, 10 days, 20° C., mycelial growth
Summary of the method: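 V. inaequalis propagules (5×10^4/ml, malt agar-grown) were exposed in half-strength PDB to 10 ppm final test compound delivered in acetone. Growth was scored after incubation for 10 days at 20° C, as a rating relative to untreated or diluent-sprayed controls.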

| SMILES | disease control rating AS [1] | disease control rating PO [2] | disease control rating EGT [3] | disease control rating LN [4] | disease control rating PVA [5] | disease control rating RSI [6] | disease control rating PHI [7] | disease control rating EGP [8] | disease control rating PIP [9] | disease control rating BCB [10] | disease control rating VII [11] |
| --- | --- | --- | --- | --- | --- | --- | --- | --- | --- | --- | --- |
| C=CCN(C1CCCCC1)C1COC2(CCC(C(C)(C)C)CC2)C1 (stereo not drawn) [Compound 79] | 0 (less than 50% disease control) | 0 (less than 50% disease control) | 2 (greater than 80% disease control) | 0 (less than 50% disease control) | 0 (less than 50% disease control) | 0 (less than 50% disease control) | 0 (less than 50% disease control) | 2 (greater than 80% disease control) | 2 (greater than 80% disease control) | 1 (about 50-80% disease control) | 0 (less than 50% disease control) |
| CC(C)CNC1COC2(CCC(C(C)(C)C3CCCCC3)CC2)C1 (stereo not drawn) [Compound 139] | 0 (less than 50% disease control) | 0 (less than 50% disease control) | 2 (greater than 80% disease control) | 1 (about 50-80% disease control) | 0 (less than 50% disease control) | 0 (less than 50% disease control) | 2 (greater than 80% disease control) | 2 (greater than 80% disease control) | 0 (less than 50% disease control) | 0 (less than 50% disease control) | 2 (greater than 80% disease control) |
| CCCCCCCCNC1COC2(C1)C1CC3CC(C1)CC2C3 (stereo not drawn) [Compound 115] | 0 (less than 50% disease control) | 0 (less than 50% disease control) | 2 (greater than 80% disease control) | 0 (less than 50% disease control) | 0 (less than 50% disease control) | 0 (less than 50% disease control) | 1 (about 50-80% disease control) | 2 (greater than 80% disease control) | 1 (about 50-80% disease control) | 0 (less than 50% disease control) | 2 (greater than 80% disease control) |
| Cc1ccc(CNC2COC3(CCC(C(C)(C)C)CC3)C2)cc1 (stereo not drawn) [Compound 28] | 0 (less than 50% disease control) | 0 (less than 50% disease control) | 2 (greater than 80% disease control) | 0 (less than 50% disease control) | 0 (less than 50% disease control) | 0 (less than 50% disease control) | 0 (less than 50% disease control) | 2 (greater than 80% disease control) | 0 (less than 50% disease control) | 0 (less than 50% disease control) | 2 (greater than 80% disease control) |
| CC1CCC(NC2COC3(CCC(C(C)(C)C)CC3)C2)CC1 (stereo not drawn) [Compound 89] | 0 (less than 50% disease control) | 0 (less than 50% disease control) | 2 (greater than 80% disease control) | 1 (about 50-80% disease control) | 1 (about 50-80% disease control) | 1 (about 50-80% disease control) | 0 (less than 50% disease control) | 2 (greater than 80% disease control) | 0 (less than 50% disease control) | 0 (less than 50% disease control) | 0 (less than 50% disease control) |
| CCCCCCNC1COC2(CCC(C(C)(C)C)CC2)C1 (stereo not drawn) [Compound 38] | 2 (greater than 80% disease control) | 0 (less than 50% disease control) | 2 (greater than 80% disease control) | 0 (less than 50% disease control) | 0 (less than 50% disease control) | 1 (about 50-80% disease control) | 2 (greater than 80% disease control) | 2 (greater than 80% disease control) | 0 (less than 50% disease control) | 0 (less than 50% disease control) | 0 (less than 50% disease control) |
| CCCCCCNCC1COC2(CCC(C(C)(C)C)CC2)C1 (stereo not drawn) [Compound 184, 8-t-butyl-3-n-hexylaminomethyl-1-oxaspiro(4,5)decane] | 0 (less than 50% disease control) | 0 (less than 50% disease control) | 2 (greater than 80% disease control) | 0 (less than 50% disease control) | 0 (less than 50% disease control) | 2 (greater than 80% disease control) | 1 (about 50-80% disease control) | 2 (greater than 80% disease control) | 0 (less than 50% disease control) | 2 (greater than 80% disease control) | 2 (greater than 80% disease control) |
| CC1CC(C)CN(C2COC3(CCC(c4ccccc4)CC3)C2)C1 (stereo not drawn) [Compound 57] | 0 (less than 50% disease control) | 0 (less than 50% disease control) | 2 (greater than 80% disease control) | 1 (about 50-80% disease control) | 0 (less than 50% disease control) | 0 (less than 50% disease control) | 0 (less than 50% disease control) | 2 (greater than 80% disease control) | 0 (less than 50% disease control) | 0 (less than 50% disease control) | 1 (about 50-80% disease control) |
| CC(C)(C)C1CCC2(CC1)CC(N1CCOCC1)CO2 (stereo not drawn) [Compound 11] | 0 (less than 50% disease control) | 0 (less than 50% disease control) | 0 (less than 50% disease control) | 0 (less than 50% disease control) | 0 (less than 50% disease control) | 0 (less than 50% disease control) | 1 (about 50-80% disease control) | 2 (greater than 80% disease control) | 0 (less than 50% disease control) | 0 (less than 50% disease control) | 1 (about 50-80% disease control) |
